Experimental findings from EPA's ToxValDB 9.5 (doi:10.2903/j.efsa.2015.4302) are described below.

In data set [1] the test system is Colinus virginianus. The settings on record: for LC50 / LD50: acute, oral, mortality; for LC50: diet.
Data set [2] deals with Rattus norvegicus.
Data set [3] has as its system Pimephales promelas. The settings on record: chronic/long-term; duration: 255 days; growth.
The test system of data set [4] is Oryctolagus sp. The settings on record: repeat dose other; mortality.
Data set [5] relates to Apis mellifera. As to conditions: acute, mortality.
The subject of data set [6] is Daphnia magna. The settings on record: chronic/long-term; duration: 21 days; reproduction.
Data set [7] has as its system Skeletonema costatum. The settings on record: acute; duration: 72 hours; growth.
Data set [8] has as its system Anabaena flosaquae. The settings on record: acute; duration: 72 hours.
Data set [9] has as its system Oncorhynchus mykiss. The settings on record: chronic/long-term; duration: 85 days; growth.
Data set [10] deals with Tagia sp. The settings on record: acute; duration: 14 days; mortality.
The subject of data set [11] is Anas platyrhynchos. As to conditions: reproductive.
The test system of data set [12] is Danio rerio. The settings on record: short-term; duration: 168 hours; growth.

In data set [1], `NCP(=O)(O)O` [Aminomethylphosphonic acid] had an LC50 of more than 5620 mg/kg-day and an LD50 of more than 2250 mg/kg-day.
For orientation: NOAEL means the highest dose or exposure tested at which no adverse effect was seen. With `O=C(O)CNCP(=O)(O)O` [Glyphosate], the LD50 in data set [2] (acute, mortality) is more than 2000 mg/kg-day; in data set [5] (dermal), more than 100 µg/piece; in [5] (oral, unspecified), 100 µg/piece; in data set [1], 4330 mg/kg-day. The NOAEL turned out to be 197 mg/kg-day in data set [2] (chronic) and 50 mg/kg-day in data set [4]. For the same molecule, the NOEC in data set [3] was 25.7 mg/L; in data set [6] it was 12.5 mg/L; in [7], 1.82 mg/L; in data set [8], 12 mg/L; in [9], 9.6 mg/L; in data set [12], 1 mg/L. Moreover, the LC50 was 5600 mg/kg in data set [10] and more than 5200 mg/kg-day in data set [1]. Further, the NOEL was 125 mg/kg-day in data set [11] and 96.3 mg/kg-day in data set [1] (reproduction developmental).
